{"source": "patent US20240408057A1", "about": "“Composition for preventing or treating cachexia and muscle loss” (METAFINES.CO.LTD., priority 2023, published 2024)", "key": {"Calpain 3 [1]": {"test_system": "Calpain 3", "assay": "Calpain 3 expression (Western blot) in CCM-treated C2C12 myotubes", "type": "cell-based, mouse", "protocol": "C2C12 cell line was dispensed into a 6-well plate at 4.0×10^5 cells/well and cultured in DMEM medium containing 10% fetal bovine serum (FBS) under 37° C. and 5% CO2 conditions for one day. When the cell density reached about 80%, the medium was replaced with a differentiation medium and the cells were cultured for additional 3 days. […] After culturing for 72 hours, the cells were collected and analyzed for PDK-4, which is a target marker, by Western blot and the results are summarized in FIG. 6.\nThe experiment was performed in the same manner as in Experimental Example 3-1, except that Calpain 3 was analyzed as a target marker for Western blot, and the results are summarized in FIG. 7.\n(§1) A C2C12 cell line was dispensed into a 6-well plate at 4.0×10^5 cells/well, and then cultured in DMEM medium containing 10% fetal bovine serum (FBS) under 37° C. and 5% CO2 conditions for one day. When the cell density reached about 80%, the medium was replaced with a differentiation medium and the cells were cultured for additional 3 days."}, "MuRF1 [2]": {"test_system": "MuRF1", "assay": "MuRF1 expression (Western blot) in CCM-treated C2C12 myotubes", "type": "cell-based, mouse", "conditions": "72 hours, compared to other experimental groups (components alone and in combination)", "protocol": "(§2) A C2C12 cell line was dispensed into a 6-well plate at 4.0×10^5 cells/well, and then cultured in DMEM medium containing 10% fetal bovine serum (FBS) under 37° C. and 5% CO2 conditions for one day. When the cell density reached about 80%, the medium was replaced with a differentiation medium and the cells were cultured for additional 3 days. After confirming completion of differentiation of the cells, the cells were treated with a mixture, in which the differentiation medium and cancer-cell conditioned medium (CCM) were mixed at a 1:1 ratio, to form a control group, and simultaneously, a test group was set up by treating with the calcium salts of Preparation Examples 1 to 3 according to three predetermined concentrations.\nas §1"}, "Atrogin1": {"test_system": "Atrogin1", "assay": "Atrogin1 expression (Western blot) in CCM-treated C2C12 myotubes", "type": "cell-based, mouse", "conditions": "72 hours, compared to other experimental groups (components alone and in combination)", "protocol": "as §2, §1"}, "MyHC [3]": {"test_system": "MyHC", "assay": "MyHC expression (Western blot) in CCM-treated C2C12 myotubes", "type": "cell-based, mouse", "conditions": "72 hours, compared to other experimental groups (components alone and in combination)", "protocol": "as §2, §1"}, "Myogenin [4]": {"test_system": "Myogenin", "assay": "Myogenin expression (Western blot) in CCM-treated C2C12 myotubes", "type": "cell-based, mouse", "conditions": "72 hours, compared to other experimental groups (components alone and in combination)", "protocol": "as §2, §1"}, "C2C12 myotube cells": {"test_system": "C2C12 myotube cells", "assay": "Myotube diameter (crystal violet, Image J) of CCM-treated C2C12 myotubes", "type": "cell-based, mouse", "conditions": "C2C12 myotubes + CCM 1:1, 72 hours", "protocol": "A C2C12 cell line was dispensed into a 6-well plate at 4.0×10^5 cells/well, and then cultured in DMEM medium containing 10% fetal bovine serum (FBS) under 37° C. and 5% CO2 conditions for one day. When the cell density reached about 80%, the medium was replaced with a differentiation medium and the cells were cultured for additional 3 days. […] The myotube diameter was measured using Image J from the above image, and the change in myotube cell diameter is summarized in FIG. 17B. A C2C12 cell line was dispensed into a 6-well plate at 4.0×10^5 cells/well, and then cultured in DMEM medium containing 10% fetal bovine serum (FBS) under 37° C. and 5% CO2 conditions for one day. When the cell density reached about 80%, the medium was replaced with a differentiation medium and the cells were cultured for additional 3 days. […] The myotube diameter was measured using Image J from the above images, and the changes in myotube cell diameter are summarized in FIG. 24B."}, "[5]": {"assay": "Drug concentration in blood and pharmacokinetics factors after IV and PO administration", "type": "in vivo", "conditions": "SD rats", "protocol": "After the administration of each individual rat, blood was collected according to the elapsed time (0 to 48 hours), centrifuged, and the concentration of the administered drug in the blood and the pharmacokinetic factors (PK parameter) of the obtained plasma were analyzed through LC/MS/MS analysis, and the results are summarized in Table 1 below."}, "MuRF1 [6]": {"test_system": "MuRF1", "assay": "MuRF1 expression in mouse muscle tissue, CT26 cachexia model", "type": "in vivo, Balb/c mice", "conditions": "CT26 Balb/c cachexia model, 21 days; G4 PO 200 mpk, G5 IV 100 mpk, G6 IV 200 mpk; vs vehicle control G2", "description": "(§3) The mice were sacrificed, and the skeletal muscle in the quadriceps was extracted during autopsy, and tissue was homogenized, and proteins were extracted through RIPA lysis buffer, followed by Western blot analysis."}, "MyHC [7]": {"test_system": "MyHC", "assay": "MyHC expression in mouse muscle tissue, CT26 cachexia model", "type": "in vivo, Balb/c mice", "conditions": "CT26 Balb/c cachexia model, 21 days; G4 PO 200 mpk, G5 IV 100 mpk, G6 IV 200 mpk; vs vehicle control G2", "description": "as §3"}, "Myogenin [8]": {"test_system": "Myogenin", "assay": "Myogenin expression in mouse muscle tissue, CT26 cachexia model", "type": "in vivo, Balb/c mice", "conditions": "CT26 Balb/c cachexia model, 21 days", "description": "as §3"}, "Calpain 3 [9]": {"test_system": "Calpain 3", "assay": "Calpain 3 expression in mouse muscle tissue, CT26 cachexia model", "type": "in vivo, Balb/c mice", "conditions": "CT26 Balb/c cachexia model, 21 days, G6 IV 200 mpk", "from_the_text": "In FIG. 47, each group represents the following."}, "[10]": {"conditions": "PO 2,000 mg/kg (1,000 mg/kg, BID), 1 day"}, "[11]": {"conditions": "PO 2,000 mg/kg (1,000 mg/kg, BID), 6 days"}}, "data": [{"smiles": "O=C([O-])C(Cl)Cl.O=C1OC(C(O)CO)C([O-])=C1O.[Ca+2]", "note": "(stereo not shown) [Preparation Example 1, calcium salts of ascorbic acid and dichloroacetic acid]", "values": [{"measurement": "expression level of Calpain 3", "setting": "Calpain 3 [1]; C2C12 myotubes + CCM, 72 hours, compared to other experimental groups (components alone and in combination)", "value": "higher expression level"}, {"measurement": "expression level of Calpain 3", "setting": "Calpain 3 [1]; C2C12 myotubes, differentiation medium:CCM 1:1, 72 hours, three predetermined concentrations, vs CCM control", "value": "decrease in expression was inhibited"}, {"measurement": "expression of MuRF1", "setting": "MuRF1 [2]", "value": "excellent effect of inhibiting the increase of expression"}, {"measurement": "expression of Atrogin1", "setting": "Atrogin1", "value": "excellent effect of inhibiting the increase of expression"}, {"measurement": "expression of MyHC", "setting": "MyHC [3]", "value": "excellent effect of inhibiting the decrease of expression"}, {"measurement": "expression of Myogenin", "setting": "Myogenin [4]", "value": "excellent effect of inhibiting the decrease of expression"}, {"measurement": "diameter of myotube cells", "setting": "C2C12 myotube cells; predetermined concentration, compared to CCM", "value": "increased the diameter up to a level similar to that of the normal control group (UCM)"}, {"measurement": "concentration from which the diameter reduction of myotubes was significantly inhibited", "setting": "C2C12 myotube cells; three predetermined concentrations", "value": "≥ 10", "unit": "µM"}, {"measurement": "AUClast", "setting": "[5]; IV 200 mg/kg, 1 day", "value": 19.77, "unit": "µg·h/mL"}, {"measurement": "Cmax", "setting": "[5]; IV 200 mg/kg, 1 day", "value": 30.24, "unit": "µg/mL"}, {"measurement": "Tmax", "setting": "[5]; IV 200 mg/kg, 1 day", "value": 0.25, "unit": "h"}, {"measurement": "t1/2", "setting": "[5]; IV 200 mg/kg, 1 day", "value": 0.27, "unit": "h"}, {"measurement": "AUClast", "setting": "[5]; IV 200 mg/kg, 6 days", "value": 7.98, "unit": "µg·h/mL"}, {"measurement": "Cmax", "setting": "[5]; IV 200 mg/kg, 6 days", "value": 2.70, "unit": "µg/mL"}, {"measurement": "Tmax", "setting": "[5]; IV 200 mg/kg, 6 days", "value": 0.00, "unit": "h"}, {"measurement": "t1/2", "setting": "[5]; IV 200 mg/kg, 6 days", "value": 2.72, "unit": "h"}, {"measurement": "AUClast", "setting": "[5]; PO 200 mg/kg, 1 day", "value": 38.78, "unit": "µg·h/mL"}, {"measurement": "Cmax", "setting": "[5]; PO 200 mg/kg, 1 day", "value": 23.91, "unit": "µg/mL"}, {"measurement": "Tmax", "setting": "[5]; PO 200 mg/kg, 1 day", "value": 0.50, "unit": "h"}, {"measurement": "t1/2", "setting": "[5]; PO 200 mg/kg, 1 day", "value": 0.59, "unit": "h"}, {"measurement": "AUClast", "setting": "[5]; PO 200 mg/kg, 6 days", "value": 34.62, "unit": "µg·h/mL"}, {"measurement": "Cmax", "setting": "[5]; PO 200 mg/kg, 6 days", "value": 6.26, "unit": "µg/mL"}, {"measurement": "Tmax", "setting": "[5]; PO 200 mg/kg, 6 days", "value": 0.00, "unit": "h"}, {"measurement": "t1/2", "setting": "[5]; PO 200 mg/kg, 6 days", "value": 2.72, "unit": "h"}, {"measurement": "AUClast", "setting": "[5]; PO 500 mg/kg, 1 day", "value": 353.65, "unit": "µg·h/mL"}, {"measurement": "Cmax", "setting": "[5]; PO 500 mg/kg, 1 day", "value": 66.44, "unit": "µg/mL"}, {"measurement": "Tmax", "setting": "[5]; PO 500 mg/kg, 1 day", "value": 1.50, "unit": "h"}, {"measurement": "t1/2", "setting": "[5]; PO 500 mg/kg, 1 day", "value": 4.14, "unit": "h"}, {"measurement": "AUClast", "setting": "[5]; PO 500 mg/kg, 6 days", "value": 147.85, "unit": "µg·h/mL"}, {"measurement": "Cmax", "setting": "[5]; PO 500 mg/kg, 6 days", "value": 21.28, "unit": "µg/mL"}, {"measurement": "Tmax", "setting": "[5]; PO 500 mg/kg, 6 days", "value": 0.00, "unit": "h"}, {"measurement": "t1/2", "setting": "[5]; PO 500 mg/kg, 6 days", "value": 5.58, "unit": "h"}, {"measurement": "AUClast", "setting": "[5]; [10]", "value": 889.77, "unit": "µg·h/mL"}, {"measurement": "Cmax", "setting": "[5]; [10]", "value": 130.92, "unit": "µg/mL"}, {"measurement": "Tmax", "setting": "[5]; [10]", "value": 1.75, "unit": "h"}, {"measurement": "t1/2", "setting": "[5]; [10]", "value": 5.64, "unit": "h"}, {"measurement": "AUClast", "setting": "[5]; [11]", "value": 575.25, "unit": "µg·h/mL"}, {"measurement": "Cmax", "setting": "[5]; [11]", "value": 77.20, "unit": "µg/mL"}, {"measurement": "Tmax", "setting": "[5]; [11]", "value": 0.00, "unit": "h"}, {"measurement": "t1/2", "setting": "[5]; [11]", "value": 3.11, "unit": "h"}, {"measurement": "expression level of MuRF1 in quadriceps", "setting": "MuRF1 [6]", "value": "decrease in the expression levels"}, {"measurement": "expression level of MyHC in quadriceps", "setting": "MyHC [7]", "value": "increase in the expression levels"}, {"measurement": "expression level of Myogenin in quadriceps", "setting": "Myogenin [8]; G4 PO 200 mpk, G5 IV 100 mpk, G6 IV 200 mpk, vs vehicle control G2", "value": "increase in the expression levels"}, {"measurement": "expression of Myogenin in quadriceps", "setting": "Myogenin [8]; G4 to G6, compared to G3 megestrol 125 mpk oral", "value": "increasing the expression"}, {"measurement": "expression level of Calpain 3 in quadriceps", "setting": "Calpain 3 [9]; G4 PO 200 mpk, G5 IV 100 mpk, vs vehicle control G2", "value": "increase in the expression level"}, {"measurement": "expression level of Calpain 3 in quadriceps", "setting": "Calpain 3 [9]; compared to G3 megestrol 125 mpk", "value": "excellent effect of increasing the expression level"}]}]}
